Test results published in patent US10974081B2, “Treatment and prevention of sleep disorders” (Purdue Pharma L.P., priority 2016, dated 2021).

Tested on: rat liver microsomes
Experiment: In vitro metabolic stability, rat liver microsomes
Type: in vitro ADME
Conditions: 2 μM, % remaining after 30 minutes at 37° C.
Protocol: The comparative in vitro metabolic stabilities of Compounds (1F), […], and W-212393 were determined upon exposure to human liver microsomes or rat liver microsomes according to a procedure disclosed in, e.g., Example 14 of U.S. Pat. No. 9,290,488, which is hereby incorporated by reference in its entirety. Liver microsomes from Crj;CD rats or humans were incubated with 2 μM of each tested compound; thereafter, the supernatant was analyzed by HPLC-MS for the concentration of the tested compound present. Human liver microsomes, pooled, 20 mg/mL, were obtained from […] #H0610). […] Alternatively and if desired, rat liver microsomes can be obtained commercially from, e.g., XenoTech (Sprague-Dawley rat liver microsomes, pooled, 20 mg/mL, cat #R1000). β-NADPH (β-nicotinamide adenine dinucleotide 2'-phosphate reduced tetrasodium salt hydrate) was obtained from Oriental Yeast Co., Ltd. (Tokyo, Japan). Each tested compound, present at an initial concentration of 2 μM, was incubated at 37° C. in the presence of 0.5 mg/mL of either human microsomes or rat microsomes in suspension in 50 mM Tris-HCl buffer (7.4 pH), 150 mM KCl, 10 mM MgCl2, and 1 mM β-NADPH. Incubation was initiated upon the addition of a 100-fold concentrated solution of the tested compound to one of the microsome preparations. Incubation was terminated by addition of a two-fold volume of a 1/1 mixture of acetonitrile/methanol after either 0 minutes or 30 minutes of incubation at 37° C. Thereafter, proteins and other macromolecules from the microsome preparation were removed by centrifugation. All incubations were conducted in duplicate. […] The HPLC system consisted of a Waters 2795 separations module (Waters Corp., Milford, Mass.) equipped with an inline degasser, temperature controlled auto-sampler, and column oven. The analytical column was a Waters […], 2.1 mm×20 mm column. The mass analyzer was a Waters ZQ, single quadrupole mass spectrometer equipped with an electrospray ionization source operating in the positive ionization mode and utilizing a stainless steel spray capillary. […]

CNC(=O)Cn1c(=O)n(C2CCN([C@@H]3Cc4cccc5cccc3c45)CC2)c2ccccc21 [Compound W-212393]
Rat Metabolic Stability (%): 58.4%
